Measured values: ChEMBL document CHEMBL5241088, “Selective SIRT2 inhibitors as promising anticancer therapeutics: An update from 2016 to 2020” (Eur J Med Chem, 2021)
pIC50: −log10 of the molar value. Each block holds one compound with its values, some of them ahead of it.

Key:
[1] = Cytotoxicity against human DLBCL cells assessed as cell viability after 72 hrs by CellTiter-Glo assay; type: functional, cell-based
[2] = system: Raji; assay: Cytotoxicity against human Raji cells assessed as cell viability after 72 hrs by CellTiter-Glo assay; type: functional, cell-based
[3] = molecular target: T1, NAD-dependent protein deacetylase sirtuin-2 (Homo sapiens, UniProt Q8IXJ6); assay: Inhibition of human SIRT2 expressed in Escherichia coli BL21(DE3) using Ac-Arg-His-Lys-[Lys-(Ac)]-AMC substrate
T1 sequence (Q8IXJ6 whole entry): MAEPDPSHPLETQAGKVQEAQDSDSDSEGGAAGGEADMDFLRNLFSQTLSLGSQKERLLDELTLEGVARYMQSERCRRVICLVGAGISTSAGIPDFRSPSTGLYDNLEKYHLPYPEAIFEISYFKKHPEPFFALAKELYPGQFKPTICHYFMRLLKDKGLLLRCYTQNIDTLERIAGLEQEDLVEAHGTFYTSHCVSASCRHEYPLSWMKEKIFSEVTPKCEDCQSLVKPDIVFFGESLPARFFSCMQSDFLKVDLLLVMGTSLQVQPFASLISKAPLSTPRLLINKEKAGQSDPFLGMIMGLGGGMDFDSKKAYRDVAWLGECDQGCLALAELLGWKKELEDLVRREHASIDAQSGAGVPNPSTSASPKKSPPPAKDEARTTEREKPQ

[4] = molecular target: T1, NAD-dependent protein deacetylase sirtuin-2; assay: Inhibition of recombinant SIRT2 (unknown origin) using (FAM)-labeled fluorescent peptide-RHKK(Ac)LM by electrophoretic mobility shift assay
[5] = molecular target: T1, NAD-dependent protein deacetylase sirtuin-2; assay: Inhibition of human SIRT2 using sirtuin substrate incubated for 30 mins by enzymatic fluorescence assay
[6] = system: MDA-MB-231; assay: Antiproliferative activity against human MDA-MB-231 cells incubated for 72 hrs by MTT assay; type: functional
[7] = molecular target: T1, NAD-dependent protein deacetylase sirtuin-2; assay: Inhibition of SIRT2 (unknown origin)
[8] = system: MCF7; assay: Antiproliferative activity against human MCF7 cells incubated for 72 hrs by MTT assay; type: functional
[9] = molecular target: T1, NAD-dependent protein deacetylase sirtuin-2; assay: Inhibition of human GST-fused SIRT2 expressed in Escherichia coli BL21(DE3)
[10] = molecular target: T2, NAD-dependent protein deacetylase sirtuin-2 (Homo sapiens) (UniProt Q8IXJ6); assay: Inhibition of human SIRT2 (34 to 356 amino acids) by surface plasmon resonance assay relative to control; conditions: concentration not given here
T2 sequence (whole entry): T1 sequence (Q8IXJ6 whole entry)

[11] = system: HEK-293T; assay: Antiproliferative activity against human HEK293T cells; type: functional, cell-based
[12] = molecular target: T1, NAD-dependent protein deacetylase sirtuin-2; assay: Inhibition of human SIRT2 deacetylase activity using QPKKac as substrate
[13] = system: MCF7; assay: Antiproliferative activity against human MCF7 cells; type: functional, cell-based
[14] = system: MCF7; assay: Cytotoxicity against human MCF7 cells assessed as cell viability measured after 3 days by Cell Titer Blue assay; type: functional, cell-based; conditions: MCF7, 72 h
[15] = system: MDA-MB-231; assay: Cytotoxicity against human MDA-MB-231 cells assessed as cell viability measured after 3 days by Cell Titer Blue assay; type: functional, cell-based; conditions: MDA-MB-231, 72 h
[16] = system: MDA-MB-468; assay: Cytotoxicity against human MDA-MB-468 cells assessed as cell viability measured after 3 days by Cell Titer Blue assay; type: functional, cell-based; conditions: MDA-MB-468, 72 h
[17] = molecular target: T1, NAD-dependent protein deacetylase sirtuin-2; assay: Inhibition of human SIRT2 demyristoylation activity using ETDKac as substrate
[18] = molecular target: T1, NAD-dependent protein deacetylase sirtuin-2; assay: Inhibition of human SIRT2 using Ac-peptide as substrate assessed as fluorescence intensity by microplate reader

Structure (SMILES): CNC(=O)C(Cc1c(O)ccc2cc(Br)ccc12)C(=O)c1ccc(Br)cc1 (stereo not drawn)
pIC50 [1]: 5.24 | pIC50 [2]: 5.04

Structure (SMILES): C[C@H](NC(=O)[C@H](CCCCNC(=S)CNC(=O)c1ccccc1Nc1cccc(OCCc2ccccc2)c1)NC(=O)OCc1ccccc1)C(N)=O
GI50 [6]: 8300 nM | pIC50 [7]: 5.81 | GI50 [8]: 8300 nM

Structure (SMILES): CCC(C)(C)c1ccc(OCC(O)CN2C[C@@H]3C[C@H](C2)c2cccc(=O)n2C3)c(C(C)(C)CC)c1 (stereo partly drawn)
pIC50 [9]: 6.34

Structure (SMILES): CC(C)=CCc1c(O)cc2oc3cc(O)c(O)c(CC=C(C)C)c3c(=O)c2c1O
pIC50 [5]: 5.42

Structure (SMILES): CCCCCCCCCCCCCC(=S)NCCCC[C@H](NS(C)(=O)=O)C(=O)N[C@H](C)C(=O)N[C@@H](CCCNC(=N)N)C(N)=O
pIC50 [11]: 7.00 | pIC50 [12]: 7.15 | pIC50 [13]: 6.30

Structure (SMILES): CCCCCCCCCCCCCC(=S)NCCCCC(NC(=O)OCc1ccccc1)C(=O)Nc1ccccc1 (stereo not drawn)
pIC50 [14]: 5.08 | pIC50 [15]: 4.47 | pIC50 [16]: 5.07

Structure (SMILES): CCCCCCCCCCCCCC(=S)NCCCC[C@H](NS(C)(=O)=O)C(=O)N[C@@H](C)C(=O)N[C@@H](CCCNC(=N)N)C(N)=O
pIC50 [11]: 8.00 | pIC50 [17]: 7.05 | pIC50 [13]: 7.30

Results, then the compound that gave them:

pIC50 [3]: 5.42
Structure (SMILES): COc1ccc2cc(S(=O)(=O)Cc3ccc(OC(C)=O)cc3)oc2c1

pIC50 [4]: 6.74
Structure (SMILES): C=CCNC(=S)N/N=C/c1ccc(OC)c(Cn2cc([N+](=O)[O-])cn2)c1

pIC50 [5]: 5.04
Structure (SMILES): COc1c(O)cc2oc3cc(O)c(CC=C(C)C)c(O)c3c(=O)c2c1CC=C(C)C [MANGOSTIN]

pIC50 [7]: 6.01
Structure (SMILES): Cc1[nH]c2c(c1C(=O)N(C)Cc1cccc(-c3ccc(C(F)(F)F)cc3)c1)C(=O)CC(C)(C)C2

pIC50 [5]: 4.72
Structure (SMILES): COc1cc2oc3cc(O)c(OC)c(CC=C(C)C)c3c(=O)c2c(O)c1CC=C(C)C

inhibition [10]: 73.1%
Structure (SMILES): CCOC(=O)c1c(/C=N/OCc2cn(CC(=O)c3ccc(OC)cc3)nn2)c2ccccc2n1C

pIC50 [18]: 5.89
Structure (SMILES): O=C(CSc1nnc2c3ccccc3n(Cc3ccccc3)c2n1)Nc1cccc2ccccc12
